Paper PMC8229286, “Pharmacokinetics-Driven Evaluation of the Antioxidant Activity of Curcuminoids and Their Major Reduced Metabolites—A Medicinal Chemistry Approach” (Molecules, 2021)
Converted amounts (≈) assume the structure as drawn. Like-named read-outs stand apart in the source and are kept apart here.

Experiments:
[1] = Chemical stability in PBS pH 7.4; conditions: between 0–2 h at 37 °C in PBS, Stable = no chemical change detected during the evaluation time (4 h)
Method: (§1) Kinetic solubility was tested with 5% (v/v) DMSO as cosolvent in phosphate buffered saline (PBS, 0.01 M phosphate buffer pH 7.4, 0.138 M NaCl, 0.0027 M KCl, without Ca^2+, Mg^2+) at room temperature for 2 h. Chemical stability was tested with 10% (v/v) DMSO as cosolvent in PBS pH 7.4 at 37 °C for 4 h. Metabolic stability was investigated on human liver microsomes (1 mg/mL), which were preincubated with 25 µM test compounds for 5 min at 37 °C in 0.1 M Tris-HCl buffer, pH 7.4 contained 6.67 mM Na-pyrophosphate, 5.56 mM MgCl2, 5.56 mM glucose-6-phosfate, 4.63 U/mL glucose-6-phosphate dehydrogenase. The reaction was initiated by adding preincubated cofactor (37 °C,10 mM NADPH). After 10, 30, and 60 min incubation at 37 °C, the reaction was stopped by adding equal volume of cooled methanol (−20 °C). The samples were centrifuged at 20,000 g for 5 min. The supernatant and all above described test solutions were analyzed by LC-MS/MS. LC-MS analysis was carried out on an Agilent 1200 liquid chromatography system coupled with an 6410 QQQ-MS (Agilent Technologies, Palo Alto, CA, USA). Analysis was on a Cortecs C18 column (150 × 4.6 mm, 2.7 µm, Waters) at 40 °C, with a mobile phase flow rate of 1.45 mL/min. Composition of eluent A was 0.1% (v/v) trifluoroacetic acid (TFA) in water (pH 1.9). A linear gradient of 0–100% B (acetonitrile (AcN) and water in 95:5 (v/v)) was applied at a range of 0–17 min, then 100% B at 17–22 min. The injection volume was set at 20 µL and chromatograms were registered at 220 ± 4 nm. The MSD operating parameters in ESI positive ionization mode were as follows: scan ion mode (100–800 m/z), drying gas temperature 350 °C, nitrogen flow rate 12 L/min, nebulizer pressure 40 psi, quadrupole temperature 100 °C, capillary voltage 4000 V, fragmentor voltage 135 V.

[2] = Kinetic solubility in PBS; conditions: for solubility kinetic at 2 h: PBS with 5% (v/v) DMSO, pH 7.4, aqueous with cosolvent or surfactant or cyclodextrin, kinetic from dmso stock; for Kinetic Solubility: after 2 h, at 37 °C in PBS, pH 7.4, mean ± S.E.M, n = 3
Method: as §1

BBB-PAMPA permeability = conditions: for Papp at 4 h, 100 µM: PAMPA
Method: (§2) BBB and GI permeability was determined by using tissue-specific parallel artificial membrane permeability assay (GI-PAMPA [46], BBB-PAMPA [47]) models. Briefly, a 96-well acceptor plate and a 96-well filter plate were assembled into a sandwich. The hydrophobic filter material of the 96 well filter plate was coated by the mixture of phosphatidylcholine:cholesterol 2:1 (5 µL, 4 % (w/v) in dodecane: GI-PAMPA) or by porcine brain lipid (PBL) (5 µL, 2.6 % (w/v) in dodecane:hexane 25:75 v/v%: BBB-PAMPA). Subsequently, the acceptor wells at the bottom of the sandwich were filled with 300 µL of 10 mM PBS solution with 5% DMSO adjusted to pH 7.4. The donor wells at the top of the sandwich were hydrated with 150 µL of test compound solution. The test compound solutions were prepared in 100 times dilution. Firstly, a 10 mM stock solution was prepared from the corresponding compound in DMSO, then it was diluted with PBS (pH 6.5: GI-PAMPA or pH 7.4: BBB-PAMPA) to get 5% mixture followed by filtration through a MultiScreen Solubility filter plate. The resulting sandwich was then incubated at 37 °C for 4h. After the incubation, PAMPA sandwich plates were separated and compound concentrations in donor and acceptor solutions were investigated by HPLC-DAD. HPLC analyses were performed using a Shimadzu Prominence Modular HPLC system (Shimadzu Corporation, Kyoto, Japan) on a Kinetex® 2.6mm C18 100 Å LC column (30 × 3 mm) at 45 °C. Mobile phase flow rate was 1.1 mL/min using a gradient of AcN and 0.1% (v/v) formic acid in water (from 5% AcN to 95% in 2.5 min). Chromatograms were recorded at the wavelength of 200–500 nm, integration was carried out at the UVmax of each compound. The applied injection volume was 6 μL.

[3] = Metabolic stability in human liver microsomes; conditions: for CLint scaled at 25 µM / half-life at 25 µM: human, human liver microsomes, pH 7.4; for Met.stab. in HLM t1/2: human liver microsomes 1 mg/mL, 25 µM compound, 37 °C, mean ± S.E.M, n = 3; for Met.stab. in HLM Cl'int: intrinsic clearance calculated from in vitro t1/2 data in HLM
Method: as §1

GI-PAMPA permeability = conditions: for GI-PAMPA MR (membrane retention) / GI-PAMPA Pe: PBS pH 7.4, 37 °C, 4 h; for Papp at 4 h, 100 µM: PAMPA, pH 7.4
Method: as §2

[4] = AAPH assay (oxygen radical absorbance capacity, ORAC); conditions: concentration for 50% antioxidant capacity; average ± S.E.M
Method: Antioxidant capacity measurement was carried out on 96-well microplates, based on oxygen radical absorbance capacity (ORAC) assay. A 20 μL aliquot of the sample (6 dilutions with buffer from 10 μg/mL stock solution dissolved in phosphate buffer, containing 1% MeOH), 120 μL of fluorescein (dissolved in phosphate buffer, pH = 7.4, 70 nM final concentration), and 60 μL of 2,2′-azobis(2-methylpropionamidine) dihydrochloride (AAPH, dissolved in phosphate buffer, pH = 7.4, 12 mM final concentration) were pipetted into each well. Each measurement was performed twice in duplicates. Each plate contained six dilutions of trolox as the standard, and phosphate buffer as blank. Flourescence (excitation at 485 nm and emission at 520 nm) was measured over a 3 h period with 1.5-min cycle intervals by a FluoStar Optima plate-reader (BMG Labtech GmbH). The antioxidant capacity was calculated for each concentration with the following formula: antioxidant capacity = (AUCAntioxidant − AUCBlank)/AUCBlank × 100 where AUC is the area under curve obtained for the sample and blank assays. Based on the linear correlation between the concentration of the samples and the antioxidant capacity, IC50 values could be obtained, which define the concentration (in µM) of each compound required to have 50% antioxidant capacity defined by the previous equation.

[5] = DPPH free radical scavenging assay; conditions: 30 min, absorbance 550 nm; average ± S.E.M
Method: The DPPH free radical scavenging assay was performed based on the method of Fukumoto et al. with some modification. The measurement was performed on a 96-well microplate. Microdilution series of the samples (0.2 mg/mL stock solution, dissolved in HPLC grade MeOH) were made starting with 100 μL. To each well 100 μL of DPPH reagent (100 μM in HPLC grade MeOH) was added to gain the final volume of 200 μL. The microplates were kept in dark, and the absorbance was measured after 30 min at 550 nm using a FluoStar Optima plate reader (software version 2.20R2, BMG Labtech, Ortenberg, Germany). Methanol was used as blank. The scavenging activity was calculated as Inhibition (%) = (A0 − As)/A0 × 100, and EC50 values were calculated by Graph Pad Prism (GraphPad Software, Inc., La Jolla, CA, USA).

[6] = Experimental logP in octanol-water and toluene-water systems; conditions: for ΔlogPoct_tol: logPo/w − logPtol/w; for logP at 24 h: octanol/water; for logPtol/w: toluene-water, average ± S.E.M, five parallel experiments
Method: Lipophilicity measurements of hydrocurcumins were performed by dissolving the compounds in the organic solvents (octanol and toluene) at 1mg/mL concentration and mixing them with water (1:5 and 1:10 ratios, each in five replicates). After 24 h the concentration of the compounds in the aqueous phase were calculated by using a calibration dilution series measured on RP-HPLC system. The concentration of the organic phase was calculated from the concentration of the aqueous phase.

[7] = pH 7.4
Method: as §2

[8] = pH 7.4; remark: listed apart in the source
Method: as §1

[9] = microsomes
Method: as §1

[10] = design: method as in PMID 17999464; conditions: cited from earlier work

Chemical Stability Shelf-Life [1] | solubility kinetic at 2 h [2] [µM] | Papp at 4 h, 100 µM (BBB-PAMPA permeability) [×10⁻⁶ cm/s] | BBB-PAMPA MR (membrane retention) (BBB-PAMPA permeability; PBS pH 6.5→pH 7.4, 37 °C, 4 h) [%] | CLint scaled at 25 µM [3] [mL/min/kg] | half-life at 25 µM [3] [h] | GI-PAMPA MR (membrane retention) (GI-PAMPA permeability) [%] | GI-PAMPA Pe (GI-PAMPA permeability) | IC50 [4] [µM] | IC50 [5] [µM] | Papp at 4 h, 100 µM (GI-PAMPA permeability) [×10⁻⁶ cm/s] | Molecule | also measured
Stable ^# | 68.7 ± 0.7 (≈ 23.8 µg/mL) | 0.53 ± 0.07 | 14.9 ± 1.9 | 0.9 | 6.08 ± 0.957 | 1.7 ± 0.3 | 2.2 ± 0.1 * ·10^−7 cm/s | 0.49 ± 0.29 | 33.1 ± 0.8 |  | COc1cc(CCC(O)CC(O)CCc2ccc(O)cc2)ccc1O (stereo not shown) [8HDC, octahydro-demethoxycurcumin] | 
Stable ^# | 74.1 ± 0.3 (≈ 27.7 µg/mL) | 1.25 ± 0.01 | 13.3 ± 0.5 | 3.3 |  | 5.0 ± 0.6 |  | 0.39 ± 0.06 | 9.9 ± 0.9 | 0.37 ± 0.02 | COc1cc(CCC(=O)CC(O)CCc2ccc(O)c(OC)c2)ccc1O (stereo not shown) [6HC, hexahydrocurcumin] | ΔlogPoct_tol [6]: 0.46; logP at 24 h [6]: 2.15 ± 0.01; logPtol/w [6]: 1.69 ± 0.03
Stable ^# | 72.9 ± 0.9 (≈ 27.4 µg/mL) | 0.97 ± 0.02 | 8.9 ± 1.4 | 1.4 | 3.86 ± 0.56 | 4.4 ± 0.2 |  | 0.43 ± 0.11 | 11.4 ± 1 | 0.24 ± 0.01 | COc1cc(CCC(O)CC(O)CCc2ccc(O)c(OC)c2)ccc1O (stereo not shown) [8HC, octahydrocurcumin] | ΔlogPoct_tol [6]: 0.75; logP at 24 h [6]: 2.3 ± 0.02; logPtol/w [6]: 1.55 ± 0.14
 |  |  |  |  |  |  |  | 2.02 ± 0.13 | 5.6 ± 0.1 |  | Cc1c(C)c2c(c(C)c1O)CCC(C)(C(=O)O)O2 (stereo not shown) [Trolox, reference compound] | 
Stable ^# |  |  | 40.9 ± 1.5 |  |  | 12.9 ± 1.6 | 20.4 ± 0.3 * ·10^−7 cm/s | 0.41 ± 0.03 | 14.2 ± 0.5 |  | tetrahydro-demethoxycurcumin [4HDC] | Kinetic Solubility [2]: 69.5 ± 3.1 µM; BBB-PAMPA Pe (BBB-PAMPA permeability; PBS pH 6.5→pH 7.4, 37 °C, 4 h): 20.7 ± 0.5 ·10^−7 cm/s; Met.stab. in HLM t1/2 [3]: 0.0722 ± 0.00033 h; Met.stab. in HLM Cl'int [3]: 72.0 ± 0.4 mL/min/kg

Molecule | Chemical Stability Shelf-Life [1] | solubility kinetic at 2 h [2] [µM] | Papp at 4 h, 100 µM (BBB-PAMPA permeability) [×10⁻⁶ cm/s] | BBB-PAMPA MR (membrane retention) (BBB-PAMPA permeability; PBS pH 6.5→pH 7.4, 37 °C, 4 h) [%] | CLint scaled at 25 µM [3] [mL/min/kg] | half-life at 25 µM [3] [h] | GI-PAMPA MR (membrane retention) (GI-PAMPA permeability) [%] | GI-PAMPA Pe (GI-PAMPA permeability) | IC50 [4] [µM] | IC50 [5] [µM] | Papp at 4 h, 100 µM (GI-PAMPA permeability) [×10⁻⁶ cm/s] | also measured
COc1cc(/C=C/C(O)=C/C(=O)/C=C/c2ccc(O)cc2)ccc1O [DMC, demethoxycurcumin, reference compound] | 22.1 ± 0.2 min | 5.7 ± 0.9 (≈ 1.93 µg/mL) |  | 98.3 ± 0.1 | 8.3 | 0.63 ± 0.015 | 85.6 ± 0.5 |  | 0.49 ± 0.03 | 16.8 ± 0.7 | 1.06 ± 0.06 | 
tetrahydrocurcumin [4HC] |  |  |  |  |  |  |  |  | 0.43 ± 0.04 | 9.8 ± 0.2 |  | GI-PAMPA Pe ([7]; 4 h, 100 µM): 30.3 ± 1.3 * ·10^−7 cm/s; GI-PAMPA MR (membrane retention) [7]: 13.3 ± 0.4 %; BBB-PAMPA MR (membrane retention): 34.4 ± 0.6 %; BBB-PAMPA Pe (4 h, 100 µM): 31.3 ± 1.1 ·10^−7 cm/s; Kinetic Solubility [8]: 70.3 ± 0.2 µM; Met.stab. in HLM t1/2 ([9]; human): 4.34 ± 0.01 min; Met.stab. in HLM Cl'int [9]: 71.8 ± 0.1 mL/min/kg
Curcumin [reference compound] | 29.7 ± 0.6 min |  |  | 96.7 ± 0.4 |  |  | 90.6 ± 0.3 | 5.0 ± 0.4 ·10^−7 cm/s | 0.32 ± 0.1 | 11.8 ± 0.1 |  | Kinetic Solubility [2]: 3.1 ± 0.1 µM; Met.stab. in HLM t1/2 [3]: 1.18 ± 0.085 h; Met.stab. in HLM Cl'int [3]: 4.5 ± 0.3 mL/min/kg; Major metabolite identified in the microsomal system (LC-MS) ([3]; semi-qualitative, by m/z change and retention time, Table S1): 6HC as a major metabolite; Safe human consumption amount [10]: up to 12 g/day
